According to patent publication US4563472A, “Iodoallyl and iodopropargyl substituted tetrazoles and anti-microbial compositions thereof” (Meiji Seika Kaisha, Ltd., priority 1982, dated 1986):
Converted amounts (≈) assume the structure as drawn. Like-named read-outs stand apart in the source and are kept apart here.

Tests used:
[1] = test system: Cladosporium herbarum IAM F-517; assay: Antifungal Activity (in Industrial Field), MIC; assay type: cell-based; conditions: IAMF517, read-out: Minimal Inhibitory Conc. (MIC)
[2] = test system: Cryptococcus neoformans Cr-1; assay: Antifungal Activity (in Medicinal Field), MIC; assay type: cell-based; conditions: CR1, read-out: Minimal Inhibitory Conc. (MIC)
[3] = test system: Mucor spinescens IAM Mu3; assay: Antifungal Activity (in Industrial Field), MIC; assay type: cell-based; conditions: IAMMU3, read-out: Minimal Inhibitory Conc. (MIC)
[4] = test system: Trichoderma T-1 ATCC 9645; assay: Antifungal Activity (in Industrial Field), MIC; assay type: cell-based; conditions: ATCC9645, read-out: Minimal Inhibitory Conc. (MIC)
[5] = test system: Aspergillus fumigatus Saito; assay: Antifungal Activity (in Medicinal Field), MIC; assay type: cell-based; conditions: read-out: Minimal Inhibitory Conc. (MIC)
[6] = test system: Chaetomium globosum ATCC 6205; assay: Antifungal Activity (in Industrial Field), MIC; assay type: cell-based; conditions: ATCC6205, read-out: Minimal Inhibitory Conc. (MIC)
[7] = test system: Aspergillus fumigatus IAM 2621; assay: Antifungal Activity (in Industrial Field), MIC; assay type: cell-based; conditions: IAM2621, read-out: Minimal Inhibitory Conc. (MIC)
[8] = test system: Pullularia pullulans IAM F-24; assay: Antifungal Activity (in Industrial Field), MIC; assay type: cell-based; conditions: IAMF24; Pullularia pullulans IAM F-24; read-out: Minimal Inhibitory Conc. (MIC)
[9] = test system: Trichophyton metagrophytes 530324; assay: Antifungal Activity (in Medicinal Field), MIC; assay type: cell-based
[10] = test system: Rhizopus nigricans S.N. 32; assay: Antifungal Activity (in Industrial Field), MIC; assay type: cell-based; conditions: Rhizopus stolonifer, read-out: Minimal Inhibitory Conc. (MIC)
[11] = test system: Aspergillus flavus ATCC 6275; assay: Antifungal Activity (in Industrial Field), MIC; assay type: cell-based; conditions: ATCC6275, read-out: Minimal Inhibitory Conc. (MIC)
[12] = test system: Aspergillus terreus PQMD 82 j; assay: Antifungal Activity (in Industrial Field), MIC; assay type: cell-based; conditions: PQMD82J, read-out: Minimal Inhibitory Conc. (MIC)
[13] = test system: Candida alubicans GA-24; assay: Antifungal Activity (in Medicinal Field), MIC; assay type: cell-based
[14] = test system: Penicillium luteum ATCC 9644; assay: Antifungal Activity (in Industrial Field), MIC; assay type: cell-based; conditions: Ascospirella lutea, ATCC9644, read-out: Minimal Inhibitory Conc. (MIC)
[15] = test system: Trichophyton interdigitale; assay: Antifungal Activity (in Medicinal Field), MIC; assay type: cell-based; conditions: read-out: Minimal Inhibitory Conc. (MIC)
[16] = test system: Colletotrichum lagenarium; assay: Antibacterial and Antifungal Activities (in Agricultural Field), MIC; assay type: cell-based; conditions: Colletotrichum orbiculare, read-out: Minimal Inhibitory Conc. (MIC)
[17] = test system: Pellicularia filamentosa; assay: as above; assay type: cell-based; conditions: read-out: Minimal Inhibitory Conc. (MIC)
[18] = test system: Cochliobolus miyabeanus; assay: as above; assay type: cell-based; conditions: Bipolaris oryzae, read-out: Minimal Inhibitory Conc. (MIC)
[19] = test system: Fusarium oxysporum f. lycopersici; assay: as above; assay type: cell-based; conditions: read-out: Minimal Inhibitory Conc. (MIC)
[20] = test system: Botrytis cinerea; assay: as above; assay type: cell-based; conditions: read-out: Minimal Inhibitory Conc. (MIC)
[21] = test system: Alternaria kikuchiana; assay: as above; assay type: cell-based; conditions: read-out: Minimal Inhibitory Conc. (MIC)
[22] = test system: Glomerella cingulata; assay: as above; assay type: cell-based; conditions: Colletotrichum gloeosporioides, read-out: Minimal Inhibitory Conc. (MIC)
[23] = test system: Gibberella fujikuroi; assay: as above; assay type: cell-based; conditions: Fusarium fujikuroi, read-out: Minimal Inhibitory Conc. (MIC)
[24] = test system: Xanthomonas campestris pv. oryzae; assay: microbe, parasite or virus in culture; assay type: cell-based; conditions: read-out: Minimal Inhibitory Conc. (MIC)
[25] = test system: Xanthomonas campestris pv. citri; assay: Antibacterial and Antifungal Activities (in Agricultural Field), MIC; assay type: cell-based; conditions: read-out: Minimal Inhibitory Conc. (MIC)
[26] = test system: Diaporithe citri; assay: as above; assay type: cell-based; conditions: read-out: Minimal Inhibitory Conc. (MIC)
[27] = test system: Pseudomonas syringae pv. tabaci; assay: as above; assay type: cell-based; conditions: read-out: Minimal Inhibitory Conc. (MIC)
[28] = test system: Corynebacterium michiganense; assay: as above; assay type: cell-based; conditions: Clavibacter michiganensis, read-out: Minimal Inhibitory Conc. (MIC)
[29] = test system: Trichophyton mentagrophytes; assay: Therapeutic experiment on trichophytosis in guinea pigs, visual observation; assay type: in vivo, guinea pigs (White Hartly-strain); conditions: 1% preparation, 0.25 ml once per day, 8 consecutive days
[30] = test system: Trichophyton mentagrophytes; assay: Reducing culture positive rate of skin slices from infected guinea pigs; assay type: in vivo, guinea pigs (White Hartly-strain); design: concentration or dose not given beside the values; conditions: after 8 days application, non-treated 100
[31] = test system: Phricularia oryzae; assay: Antibacterial and Antifungal Activities (in Agricultural Field), MIC; assay type: cell-based; conditions: read-out: Minimal Inhibitory Conc. (MIC)
[32] = test system: Erwinia carotovora; assay: as above; assay type: cell-based; conditions: Pectobacterium carotovorum, read-out: Minimal Inhibitory Conc. (MIC)
[33] = Trichophyton, 530324, read-out: Minimal Inhibitory Conc. (MIC)
[34] = Candida, GA24, read-out: Minimal Inhibitory Conc. (MIC)
[35] = Trichophyton metagrophytes 530324, read-out: Minimal Inhibitory Conc. (MIC)
[36] = GA24, Candida alubicans GA-24, read-out: Minimal Inhibitory Conc. (MIC)

| Structure (SMILES) | MIC [1] [µg/mL] | MIC [2] [µg/mL] | MIC [3] [µg/mL] | MIC [4] [µg/mL] | MIC [5] [µg/mL] | MIC [6] [µg/mL] | MIC [7] [µg/mL] | MIC [8] [µg/mL] | MIC [9, 33] [µg/mL] | MIC [10] [µg/mL] | MIC [11] [µg/mL] | MIC [12] [µg/mL] | MIC [13, 34] [µg/mL] | MIC [14] [µg/mL] | MIC [15] [µg/mL] | MIC [16] [µg/mL] | MIC [17] [µg/mL] | MIC [18] [µg/mL] | MIC [19] [µg/mL] | MIC [20] [µg/mL] | other results |
| --- | --- | --- | --- | --- | --- | --- | --- | --- | --- | --- | --- | --- | --- | --- | --- | --- | --- | --- | --- | --- | --- |
| IC#CCn1cncn1 [1-(1'-iodopropyn-3'-yl)-1,2,4-triazole] | 3.13 (≈ 13.4 µM) | 0.78 (≈ 3.35 µM) | 6.25 (≈ 26.8 µM) | 3.13 (≈ 13.4 µM) | 0.78 (≈ 3.35 µM) | 25 (≈ 107 µM) | 50 (≈ 215 µM) | 3.13 (≈ 13.4 µM) | 1.56 (≈ 6.69 µM) | 3.13 (≈ 13.4 µM) | 6.25 (≈ 26.8 µM) | 0.39 (≈ 1.67 µM) | 3.12 (≈ 13.4 µM) | 3.13 (≈ 13.4 µM) | 0.78 (≈ 3.35 µM) |  |  |  |  |  |  |
| O=[N+]([O-])c1cn(CC#CI)c(Cl)c1Cl [1-(1'-iodopropyn-3'-yl)-2,3-dichloro-4-nitropyrrole] | 6.25 (≈ 18.1 µM) | 1.56 (≈ 4.52 µM) | 0.39 (≈ 1.13 µM) | 3.12 (≈ 9.05 µM) | 0.39 (≈ 1.13 µM) | 1.56 (≈ 4.52 µM) | < 0.09 | 6.25 (≈ 18.1 µM) |  |  | 0.39 (≈ 1.13 µM) | 0.39 (≈ 1.13 µM) |  | 0.78 (≈ 2.26 µM) | 0.39 (≈ 1.13 µM) | 1.56 (≈ 4.52 µM) | > 50 | 12.5 (≈ 36.2 µM) | 3.12 (≈ 9.05 µM) | 0.39 (≈ 1.13 µM) | MIC [21]: 0.78 µg/mL (≈ 2.26 µM); MIC [22]: 0.19 µg/mL (≈ 0.551 µM); MIC [9, 35]: 0.09 µg/mL (≈ 0.261 µM); MIC [23]: 1.56 µg/mL (≈ 4.52 µM); MIC [24]: 0.39 µg/mL (≈ 1.13 µM); MIC [13, 36]: 0.78 µg/mL (≈ 2.26 µM) |
| O=[N+]([O-])c1cc(Cl)n(CC#CI)c1 [1-(1'-iodopropyn-3'-yl)-2-chloro-4-nitropyrrole] | 1.56 (≈ 5.02 µM) |  | 0.78 (≈ 2.51 µM) | 3.12 (≈ 10 µM) |  | 12.5 (≈ 40.3 µM) | 0.19 (≈ 0.612 µM) | 1.56 (≈ 5.02 µM) |  |  | 0.39 (≈ 1.26 µM) | 0.19 (≈ 0.612 µM) |  | 0.39 (≈ 1.26 µM) |  |  |  |  |  |  |  |
| O=[N+]([O-])c1ccn(CC#CI)c1 [1-(1'-iodopropyn-3'-yl)-3-nitropyrrole] |  | 0.09 (≈ 0.326 µM) |  |  | 0.09 (≈ 0.326 µM) |  |  |  |  |  |  |  |  |  | 0.78 (≈ 2.83 µM) | 3.12 (≈ 11.3 µM) | 50 (≈ 181 µM) | 6.25 (≈ 22.6 µM) | 3.12 (≈ 11.3 µM) | 0.78 (≈ 2.83 µM) | MIC [21]: 1.56 µg/mL (≈ 5.65 µM); MIC [22]: 0.78 µg/mL (≈ 2.83 µM); MIC [9, 35]: 0.19 µg/mL (≈ 0.688 µM); MIC [23]: 3.12 µg/mL (≈ 11.3 µM); MIC [24]: 0.39 µg/mL (≈ 1.41 µM); MIC [13, 36]: 0.78 µg/mL (≈ 2.83 µM) |
| IC#CCn1cccn1 [1-(1'-iodopropyn-3'-yl)pyrazole] | 3.13 (≈ 13.5 µM) | 0.78 (≈ 3.36 µM) | 1.56 (≈ 6.72 µM) | 3.13 (≈ 13.5 µM) | 0.78 (≈ 3.36 µM) | 12.5 (≈ 53.9 µM) | 1.56 (≈ 6.72 µM) | 3.13 (≈ 13.5 µM) | 0.39 (≈ 1.68 µM) | 1.56 (≈ 6.72 µM) | 1.56 (≈ 6.72 µM) | 0.78 (≈ 3.36 µM) | 3.12 (≈ 13.4 µM) | 0.78 (≈ 3.36 µM) | 0.39 (≈ 1.68 µM) |  |  |  |  |  |  |
| IC#CCn1cnnn1 [1-(1'-iodopropyn-3'-yl)tetrazole] | 1.56 (≈ 6.67 µM) | 0.39 (≈ 1.67 µM) | 3.13 (≈ 13.4 µM) | 0.78 (≈ 3.33 µM) | 0.39 (≈ 1.67 µM) | 3.13 (≈ 13.4 µM) | 12.5 (≈ 53.4 µM) | 1.56 (≈ 6.67 µM) | 0.78 (≈ 3.33 µM) | 3.13 (≈ 13.4 µM) | 1.56 (≈ 6.67 µM) | 0.2 (≈ 0.855 µM) | 1.56 (≈ 6.67 µM) | 1.56 (≈ 6.67 µM) | 0.78 (≈ 3.33 µM) |  |  |  |  |  |  |
| O=[N+]([O-])c1ccn(CC(I)=C(I)I)c1 [1-(2',3',3'-triiodoallyl)-3-nitropyrrole] |  | 0.39 (≈ 0.736 µM) |  |  | 0.09 (≈ 0.17 µM) |  |  |  |  |  |  |  |  |  | 0.39 (≈ 0.736 µM) | 0.39 (≈ 0.736 µM) | 50 (≈ 94.4 µM) | 12.5 (≈ 23.6 µM) | 0.78 (≈ 1.47 µM) | 0.19 (≈ 0.359 µM) | MIC [25]: 50 µg/mL (≈ 94.4 µM); MIC [26]: 0.39 µg/mL (≈ 0.736 µM); MIC [27]: 6.25 µg/mL (≈ 11.8 µM); MIC [21]: 0.78 µg/mL (≈ 1.47 µM); MIC [28]: 0.98 µg/mL (≈ 1.85 µM); MIC [22]: 0.39 µg/mL (≈ 0.736 µM); MIC [9, 35]: 0.19 µg/mL (≈ 0.359 µM); MIC [23]: 0.39 µg/mL (≈ 0.736 µM); MIC [24]: 25 µg/mL (≈ 47.2 µM); MIC [13, 36]: 0.19 µg/mL (≈ 0.359 µM); Therapeutic Effect: Desquamation [29]: effective; Therapeutic Effect: Thickening [29]: effective; Reducing Culture Positive Rate ([30]; 3 days culture): 16.7%; Reducing Culture Positive Rate ([30]; 5 days culture): 25.0%; Reducing Culture Positive Rate ([30]; 7 days culture): 33.3%; MIC [31]: 1.56 µg/mL (≈ 2.94 µM); MIC [32]: 6.25 µg/mL (≈ 11.8 µM) |
